{"source": "patent US20220087951A1", "about": "“USE OF CANNABINOIDS IN THE TREATMENT OF EPILEPSY” (GW RESEARCH LIMITED, priority 2020, published 2022)", "key": {"[1]": {"test_system": "seizures in children and young adults with Dravet Syndrome and Lennox-Gastaut Syndrome", "assay": "Example 1: primary seizure count during baseline and by cumulative day in the treatment period, CBD vs placebo added to baseline AED regimen", "assay_type": "in vivo, human", "details": "for Ratio to Baseline (number of seizures with treatment to number of seizures at baseline): 5 mg/kg/day starting dose, negative binomial regression of primary seizure count; for percent change in number of seizures compared to baseline: 5 mg/kg/day, positive = decrease in seizures", "procedure": "Children and young adults with Dravet Syndrome Lennox-Gastaut Syndrome were administered a highly purified extract of cannabidiol (CBD) obtained from a cannabis plant or placebo.\nThe highly purified CBD extract (greater than 98% CBD w/w) was administered in a formulation described herein at a starting dose of 5 mg/kg/day in addition to their baseline anti-epileptic drug (AED) regimen.\nThe starting dose increase from 5 mg/kg/day to 10 mg/kg/day after one week of administering the first dose of CBD. […] The titration period occurred over two weeks. The starting dose was expected to minimize side effects, and not intended to achieve efficacy.\nAll patients were taking at least two concomitant anti-epileptic drugs. These included clobazam; levetiracetam; topiramate; stiripentol; phenobarbital; lacsamide; valproic acid; zonisamide.\n(§1) Prior to treatment with CBD, patients recorded the number of seizures they experienced. This established the baseline levels. During the course of treatment, patients recorded the number of seizures experienced each day.\nThe ratio in Table 9 is defined as the number of seizures with treatment to the number of seizures at baseline (e.g., before treatment). The percentage defines the percent change in number of seizures compared to baseline. Positive percentages reflect a decrease in the number of seizures compared to baseline, and negative percentages reflect an increase in number of seizures compared to baseline. The ratio to baseline of patients administered CBD extract includes data from patients treated with a maximum of 10 mg/kg/day or 20 mg/kg/day CBD extract. However, the amount of CBD administered to each treatment arm (10 mg/kg/day and 20 mg/kg/day) over the first 7 days of the study is the same."}, "[2]": {"test_system": "seizures in patients with Tuberous Sclerosis Complex (TSC)", "assay": "Example 2: mean total seizures over time of TSC patients after administration of CBD (FIG. 2)", "assay_type": "in vivo, human", "procedure": "Patients with TSC were administered a highly purified extract of cannabidiol (CBD) obtained from a cannabis plant described herein. Similar to Example 1, patients with a TSC diagnosis were administered a starting dose of 5 mg/kg/day CBD in addition to their baseline anti-epileptic drug (AED) regimen or placebo.\nThe daily dose was increased by 5 mg/kg increments until intolerance occurred or a maximum dose of 25 mg/kg/day was achieved. The starting dose increase from 5 mg/kg/day to 10 mg/kg/day occurred 7 days after administration of the first dose of CBD. […] The titration period occurred over two weeks. For patients in need of further seizure reduction, the dosage of 20 mg/kg/day was increased up to 25 mg/kg/day after one week.\nAll patients were taking at least two concomitant anti-epileptic drugs. These included clobazam; levetiracetam; topiramate; stiripentol; phenobarbital; lacsamide; valproic acid; zonisamide. The average number of concomitant antiepileptic drugs being taken was 2.7. The majority took either clobazam and/or valproic acid.\nas §1"}, "[3]": {"assay": "Solubility of the drug substance in water", "assay_type": "physicochemical"}}}
{"molecule": "C=C(C)[C@@H]1CCC(C)=C[C@H]1c1c(O)cc(CCCCC)cc1O", "note": "[CBD, Cannabidiol]", "values": [{"measurement": "Ratio to Baseline (number of seizures with treatment to number of seizures at baseline)", "setting": "[1]; Day 1", "value": 0.958}, {"measurement": "percent change in number of seizures compared to baseline", "setting": "[1]; Day 1", "value": "[4.2%]"}, {"measurement": "onset of seizure reduction", "setting": "[1]; Dravet/Lennox-Gastaut patients, starting dose 5 mg/kg/day", "value": "within one week"}, {"measurement": "Ratio to Baseline (number of seizures with treatment to number of seizures at baseline)", "setting": "[1]; First 2 Days", "value": 0.907}, {"measurement": "percent change in number of seizures compared to baseline", "setting": "[1]; First 2 Days", "value": "[9.3%]"}, {"measurement": "Ratio to Baseline (number of seizures with treatment to number of seizures at baseline)", "setting": "[1]; First 3 Days", "value": 0.882}, {"measurement": "percent change in number of seizures compared to baseline", "setting": "[1]; First 3 Days", "value": "[11.8%]"}, {"measurement": "Ratio to Baseline (number of seizures with treatment to number of seizures at baseline)", "setting": "[1]; First 4 Days", "value": 0.831}, {"measurement": "percent change in number of seizures compared to baseline", "setting": "[1]; First 4 Days", "value": "[16.9%]"}, {"measurement": "Ratio to Baseline (number of seizures with treatment to number of seizures at baseline)", "setting": "[1]; First 5 Days", "value": 0.793}, {"measurement": "percent change in number of seizures compared to baseline", "setting": "[1]; First 5 Days", "value": "[20.7%]"}, {"measurement": "Ratio to Baseline (number of seizures with treatment to number of seizures at baseline)", "setting": "[1]; First 6 Days", "value": 0.742}, {"measurement": "percent change in number of seizures compared to baseline", "setting": "[1]; First 6 Days", "value": "[25.8%]"}, {"measurement": "Ratio to Baseline (number of seizures with treatment to number of seizures at baseline)", "setting": "[1]; First 7 Days", "value": 0.717}, {"measurement": "percent change in number of seizures compared to baseline", "setting": "[1]; First 7 Days", "value": "[28.3%]"}, {"measurement": "reduction in seizures compared to baseline", "setting": "[1]; after 4 days of treatment", "value": "significant reduction in seizures"}, {"measurement": "reduction of seizures", "setting": "[1]; from within 4 days of treatment, 5 mg/kg/day CBD", "value": "> 15", "unit": "%"}, {"measurement": "time to seizure reduction after administration of starting dose", "setting": "[1]; starting dose 5 mg/kg/day", "value": "≤ 4", "unit": "days"}, {"measurement": "reduction in seizures compared to baseline", "setting": "[2]; after 4 days of treatment", "value": "significant reduction in seizures"}, {"measurement": "onset of seizure reduction", "setting": "[2]; starting dose 5 mg/kg/day", "value": "within one week"}, {"measurement": "time to seizure reduction after administration of starting dose", "setting": "[2]; starting dose 5 mg/kg/day", "value": "≤ 4", "unit": "days"}, {"measurement": "mean total seizures over time (FIG. 2)", "setting": "[2]; titration period, starting dose 5 mg/kg/day", "value": "starts decreasing during the titration period"}, {"measurement": "solubility in water", "setting": "[3]", "value": "insoluble in water"}]}
